{"source": "patent US20020160968A1", "about": "“Inhibitors of cellular niacinamide mononucleotide formation and their use in cancer therapy” (Klinge Pharma GmbH, priority 1999, published 2002)", "key": {"[1]": {"test_system": "Hep G2 cells", "experiment": "Nicotinamide Reversibility Assay / cell growth inhibition of Hep G2 cells (SRB, six days)", "assay_type": "cell-based, human", "settings": "for IC50: Homo sapiens, HepG2, 144 h, six days of compound incubation, SRB, read-out: Cell growth inhibition IC50-values [μM] Hep G2", "procedure": "Nicotinamide Reversibility Assay\nHep G2 cells derived from a human liver carcinoma were plated at a density of 20,000 cells/ml in 12-well plastic dishes. Cultivation occurred in Richters IMEM-ZO nutrient medium with 5% fetal calf serum (FCS) in a tissue culture incubator with a gas mixture of 5% CO2 and 95% air at a temperature of 37° C. One day after plating, the culture medium was aspirated from the cells and replaced by fresh medium which contained the respective concentrations of the test compounds and where applicable of the nicotinamide. For the individual concentrations and the controls without test compounds, three-fold batches were done for each. Three days after the beginning of treatment, the medium was again renewed with the test compounds and where applicable the nicotinamide. After six days of compound incubation, the test was ended and the protein amount in the individual wells was determined with the sulforhodamin-B-method (according. to P. Skehan et al.: New Colorimetric Cytotoxicity Assay for Anticancer-Drug Screening. J. Natl. Cancer Inst. 82: 1107-1112, 1990). The IC50-values were taken from the dose-response curves and given as a comparative measurement for the activity of the test compounds."}, "[2]": {"test_system": "HepG2 cells", "experiment": "Cell growth under high-density conditions (SRB assay), delayed cell death (DCD)", "assay_type": "cell-based, human", "settings": "Homo sapiens, high density HepG2 cultures"}, "[3]": {"molecular_target": "T1, niacinamide phosphoribosyltransferase (NAPRT, EC 2.4.2.12) (Homo sapiens, UniProt P43490)", "T1 construct": "protamine-treated cytoplasmic fraction of K-562 cells as the enzyme source; endogenous in cells; host or cells: K-562 (ATCC CCL 243), freeze-thaw lysate, 23,000 x g supernatant treated with protamine sulfate", "T1 sequence (P43490 whole entry)": "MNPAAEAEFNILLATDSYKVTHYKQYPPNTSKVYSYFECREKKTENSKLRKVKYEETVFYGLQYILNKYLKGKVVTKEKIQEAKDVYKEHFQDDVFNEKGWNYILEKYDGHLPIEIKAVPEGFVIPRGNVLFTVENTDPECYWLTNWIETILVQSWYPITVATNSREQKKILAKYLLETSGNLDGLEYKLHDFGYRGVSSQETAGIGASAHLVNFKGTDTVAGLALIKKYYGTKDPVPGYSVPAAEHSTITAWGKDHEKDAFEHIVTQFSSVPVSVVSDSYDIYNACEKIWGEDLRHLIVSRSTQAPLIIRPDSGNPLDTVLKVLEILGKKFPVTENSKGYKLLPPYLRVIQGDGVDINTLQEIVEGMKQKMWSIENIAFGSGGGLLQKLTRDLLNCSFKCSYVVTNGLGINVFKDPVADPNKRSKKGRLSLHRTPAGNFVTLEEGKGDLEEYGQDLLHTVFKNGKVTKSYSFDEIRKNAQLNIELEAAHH", "experiment": "Niacinamide phosphoribosyltransferase (NAPRT) assay, protamine-treated cytoplasmic fraction of K-562 cells", "assay_type": "biochemical", "settings": "for NAM: niacinamide mononucleotide formed, controls 79.1 and 71.8; for NA: niacinamide remaining, controls 389.7 and 397.0; for NAM [%] / NA [%]: portion of total radioactivity", "procedure": "The effect of the compounds on the enzyme niacinamide phosphoribosyltransferase (NAPRT, EC 2.4.2.12) was investigated using for example protamine-treated cytoplasmic fraction of K-562 cells as the enzyme source according to the NAPRT assay described in the experimental part below. The investigated compounds were used in concentrations of 10 μM, except for K22387 and K22133 where the concentration was 1 μM.\nThe assay is based on the amount of radioactive incorporation from ^14C-labelled niacinamide into niacinamide mononucleotide (NAM). NAM is subsequently separated from niacinamide (NA) by thin-layer chromatography and its quantity is determined by autoradiography.\nNiacinamide Phosphoribosyltransferase (NAPRT) Assay\nThe human cell line K-562 (chronic myelogenous leukaemia) is obtained from the American Type Culture Collection (ATCC CCL 243), Rockville, Md., USA. The K-562 cells are cultured in RPMI (Sigma, Deisenhofen, Germany, Product No.: R6504) containing 10% foetal calf serum (PAN Systems GmbH, Aidenbach, Germany), 2.2 g/l NaHCO3 (Merck, Darmstadt, Germany), 50,000 IU/l penicillin and 50 mg/l streptomycin (Sigma).\nThe K-562 cells are grown in RPMI supplemented with 10% FCS at 37° C. and 100% humidity in a 5% CO2 atmosphere up to a density of 2×10^6 cells per ml. Under these conditions, the cells grow logarithmically with a generation time of 24 hours. The cells are harvested by aspiration and centrifugation (250×g, 10 min, RT). Thereafter, the cells are washed at least 3 times by repeated centrifugation (250×g, 10 min, RT) and resuspension in CMF-PBS. After counting the cell suspension in a haematocytometer, the cells are spun into a tight pellet (390×g, […], RT) and the supernatant is carefully drawn off with a Pasteur pipette. The cells are then vortexed into suspension in sufficient lysis buffer to give a final concentration of 3×10^7 cells per ml. The suspension is frozen at −80° C. for at least one day and thawed slowly at room temperature to break up the cells. The breakage is usually greater than 95%, as determined by trypan blue exclusion. Following centrifugation at 23,000×g for 90 min at 0° C., the clarified supernatant is recovered on ice and 70 μl of 1% protamine sulfate is added per ml of supernatant. After 15 min on ice, the cloudy suspension is centrifuged a further 30 min at 23,000×g and 0° C. The final supernatant is stored in small aliquots at […] This supernatant contains about 950 to 1440 μg protein per ml. 120 to 140 μg protein per sample is used in the NAPRT assay (total assay volume: 0.5 ml).\nThe niacinamide phosphoribosyltransferase activity is determined in a reaction solution of 0.5 ml consisting of 5 mM MgCl2, 2 mM ATP, 0.5 mM PRPP, and [^14C]niacinamide (10^−5 M to 10^−7 M) in 50 mM Tris buffer pH 8.8 (final concentrations in the assay). The reaction is started by adding 100 to 120 μl cell extract. After incubation for 1 hour at 37° C., the enzyme reaction is stopped by adding cold niacinamide (50 μl of a 100 mM niacinamide solution per 0.5 ml reaction mixture) and by heating on a heating block (2 min, 105° C.). The precipitate is removed by centrifugation (2,500×g, 10 min, 4° C.) and the supernatant is collected into a […] polypropylene vial with screw cap and stored at −20° C. until further analysis. A 10 μl aliquot is taken from the supernatant to determine the total amount of radioactivity.\nThe ^14C-labelled components of the reaction mixture are separated and identified using thin-layer chromatography (TLC). 5 to 7.5 μl of each sample is transferred to a cellulose TLC foil using an automated sample applicator. The cellulose foil is developed using 1 M NH4 acetate:ethanol (3:7) as solvent. The chromatogram is run with added non-radioactive standards of NAD, NADP, NAM and niacinamide, and the spots were identified by UV absorption (RF values see Table 7). For autoradiography, the chromatogram is exposed to an imaging plate BAS-IIIs in a hypercassette for at least two days. […]"}, "[4]": {"settings": "minimum concentration which, despite initial growth, induced cell death below the number of initially seeded cells, Table 2"}, "[5]": {"settings": "compound 10 μM, controls 16.88 and 15.32"}, "[6]": {"settings": "compound 10 μM, controls 83.12 and 84.68"}}, "data": [{"smiles": "Cn1c(CCNC(=O)/C=C/c2cccnc2)ccc1CN1CCN(C(c2ccccc2)c2ccccc2)CC1", "note": "[Compound K22350, N-{2-[5-(4-benzhydryl-piperazine-1-yl-methyl)-1-methyl-1H-pyrrole-2-yl]-ethyl}-3-pyridine-3-yl-acrylamide]", "values": [{"measurement": "IC50", "setting": "[1]; Hep G2", "value": 0.7, "unit": "µM"}, {"measurement": "minimal effective concentration", "setting": "[2]; Table 5", "value": 1, "unit": "µM"}, {"measurement": "minimal effective concentration", "setting": "[2]; [4]", "value": 1, "unit": "µM"}, {"measurement": "NAM", "setting": "[3]; compound 10 μM", "value": 0.0, "unit": "pmol/h"}, {"measurement": "NA", "setting": "[3]; compound 10 μM", "value": 468.8, "unit": "pmol/h"}, {"measurement": "NAM [%]", "setting": "[3]; [5]", "value": 0.00, "unit": "%"}, {"measurement": "NA [%]", "setting": "[3]; [6]", "value": 100.00, "unit": "%"}]}, {"smiles": "O=C(NCCCCC1CCN(S(=O)(=O)c2ccc3ccccc3c2)CC1)Nc1cccnc1", "note": "[Compound K22365, 1-{4-[1-(naphthalene-2-sulfonyl)-piperidine-4-yl)-butyl}-3-pyridine-3-yl-urea]", "values": [{"measurement": "IC50", "setting": "[1]; Hep G2", "value": 0.6, "unit": "µM"}, {"measurement": "minimal effective concentration", "setting": "[2]; Table 5", "value": 3, "unit": "µM"}, {"measurement": "minimal effective concentration", "setting": "[2]; [4]", "value": 3, "unit": "µM"}, {"measurement": "NAM", "setting": "[3]; compound 10 μM", "value": 0.0, "unit": "pmol/h"}, {"measurement": "NA", "setting": "[3]; compound 10 μM", "value": 468.8, "unit": "pmol/h"}, {"measurement": "NAM [%]", "setting": "[3]; [5]", "value": 0.00, "unit": "%"}, {"measurement": "NA [%]", "setting": "[3]; [6]", "value": 100.00, "unit": "%"}]}, {"smiles": "O=C(NCCCCC1CCN(C(=O)N2c3ccccc3CCc3ccccc32)CC1)Nc1cccnc1", "note": "[Compound K22387, 1-{4-[1-(1,11-dihydro-dibenzene[b,f]azepine-5-carbonyl)-piperidine-4-yl]-butyl}-3-pyridine-3-yl-urea]", "values": [{"measurement": "Influence of the addition of nicotinamide on the action on cell growth (FIGS. 20 to 27)", "setting": "[1]; Hep G2", "value": "can be antagonized"}, {"measurement": "Reversal by Niacinamide", "setting": "[1]; Hep G2 cell growth inhibition with added nicotinamide", "value": "yes"}, {"measurement": "IC50", "setting": "[1]; Hep G2", "value": 0.002, "unit": "µM"}, {"measurement": "minimal effective concentration", "setting": "[2]; Table 5", "value": 0.01, "unit": "µM"}, {"measurement": "minimal effective concentration", "setting": "[2]; [4]", "value": 0.01, "unit": "µM"}, {"measurement": "NAM", "setting": "[3]; compound 1 μM", "value": 0.0, "unit": "pmol/h"}, {"measurement": "NA", "setting": "[3]; compound 1 μM", "value": 468.8, "unit": "pmol/h"}, {"measurement": "NA [%]", "setting": "[3]; compound 1 μM", "value": 100.00, "unit": "%"}, {"measurement": "NAM [%]", "setting": "[3]; compound 1 μM", "value": 0.00, "unit": "%"}]}, {"smiles": "NC(Cc1ccc(O)c(N=Nc2ccccc2C(=O)N2CCC(CCCCNC(=O)/C=C/c3cccnc3)CC2)c1)C(=O)O", "note": "(stereo not drawn) [Compound K22408, 2-amino-3-[4-hydroxy-3-(2-{4-[4-(3-pyridine-3-yl-acryloyl-amino)-butyl]-piperidine-1-carbonyl}-phenylazo)-phenyl]-propanoic acid trihydrate]", "values": [{"measurement": "IC50", "setting": "[1]; Hep G2", "value": 0.2, "unit": "µM"}, {"measurement": "minimal effective concentration", "setting": "[2]; Table 5", "value": 1, "unit": "µM"}, {"measurement": "minimal effective concentration", "setting": "[2]; [4]", "value": 1, "unit": "µM"}, {"measurement": "NAM", "setting": "[3]; compound 10 μM", "value": 0.0, "unit": "pmol/h"}, {"measurement": "NA", "setting": "[3]; compound 10 μM", "value": 468.8, "unit": "pmol/h"}, {"measurement": "NAM [%]", "setting": "[3]; [5]", "value": 0.00, "unit": "%"}, {"measurement": "NA [%]", "setting": "[3]; [6]", "value": 100.00, "unit": "%"}]}]}
